Reference: paper doi:10.1101/2022.03.12.484055v1 (biorxiv, 2022)

Target: T1, ASIC1 (hASIC1; ASIC1a as primary isoform in tsA-201 cells) (Homo sapiens, UniProt P78348)
T1 sequence (P78348 1-528): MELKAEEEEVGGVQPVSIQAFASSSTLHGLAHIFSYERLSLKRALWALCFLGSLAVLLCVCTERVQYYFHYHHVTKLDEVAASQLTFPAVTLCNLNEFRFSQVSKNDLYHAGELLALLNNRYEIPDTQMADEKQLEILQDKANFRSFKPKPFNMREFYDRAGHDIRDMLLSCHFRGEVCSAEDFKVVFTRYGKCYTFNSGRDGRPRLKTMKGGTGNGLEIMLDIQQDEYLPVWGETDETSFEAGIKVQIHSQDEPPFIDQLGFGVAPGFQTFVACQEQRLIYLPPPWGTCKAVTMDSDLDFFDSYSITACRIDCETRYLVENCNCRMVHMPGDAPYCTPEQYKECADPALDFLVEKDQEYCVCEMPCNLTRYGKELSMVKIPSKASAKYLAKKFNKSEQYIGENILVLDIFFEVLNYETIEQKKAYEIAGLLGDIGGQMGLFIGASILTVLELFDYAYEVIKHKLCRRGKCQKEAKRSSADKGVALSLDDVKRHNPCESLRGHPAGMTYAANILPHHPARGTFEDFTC
Test: cell-based
Conditions: tsA201, read-out: % inhibition @ 30 µM

Row | inhibition at 30 µM | Compound
1 | 33% | COc1ncc(-c2nc(C(=O)NC(=N)N)c(N)nc2N2CCCCCC2)cn1 [compound 47]
2 | 45% | N=C(N)NC(=O)c1nc(-c2cc3ccccc3s2)c(N)nc1N [compound 18, 18]
3 | 44% | N=C(N)NC(=O)c1nc(-c2ccc(C(F)(F)F)cc2)c(N)nc1N [compound 48, 48]
4 | 58% | N=C(N)NC(=O)c1nc(-c2cc3cc(F)ccc3o2)c(N2CCCCCC2)nc1N [compound 24, 24]
5 | 25% | N=C(N)NC(=O)c1nc(-c2cncnc2)c(N2CCCCCC2)nc1N [compound 45, 45]
6 | 23% | N=C(N)NC(=O)c1nc(-c2ccc3occc3c2)c(N2CCCCCC2)nc1N [compound 44, 44]
7 | 59% | N=C(N)NC(=O)c1nc(-c2ccc3occc3c2)c(N)nc1N [compound 43, 43]
8 | 49% | N=C(N)NC(=O)c1nc(-c2ccc3c(c2)CCO3)c(N2CCCCCC2)nc1N [compound 42, 42]
9 | 64% | N#Cc1ccc2oc(-c3nc(C(=O)NC(=N)N)c(N)nc3N3CCCCCC3)cc2c1 [compound 32, 32]
10 | 53% | Cn1cc(-c2nc(C(=O)NC(=N)N)c(N)nc2N2CCCCCC2)cn1 [compound 50, 50]
11 | 88% | N=C(N)NC(=O)c1nc(Cl)c(N)nc1N [compound 11, amiloride]
12 | 69% | N=C(N)NC(=O)c1nc(-c2cc3cc(F)cc(F)c3o2)c(N2CCCCCC2)nc1N [compound 36, 36]
13 | 64% | N=C(N)NC(=O)c1nc(-c2cc3ccccc3o2)c(N2CCCCCC2)nc1N [compound 17]
14 | 59% | N=C(N)NC(=O)c1nc(-c2cc3cc(Br)ccc3o2)c(N2CCCCCC2)nc1N [compound 28, 28]
15 | 22% | N=C(N)NC(=O)c1nc(-c2ccc3c(c2)CCO3)c(N)nc1N [compound 41, 41]
16 | 35% | N=C(N)NC(=O)c1nc(-c2cc3cc(Cl)ccc3o2)c(N2CCCCCC2)nc1N [compound 26, 26]

Row | inhibition at 30 µM | Compound
17 | 68% | COc1ccc2cc(-c3nc(C(=O)NC(=N)N)c(N)nc3N)oc2c1 [compound 33, 33]
18 | 35% | COc1ccc2oc(-c3nc(C(=O)NC(=N)N)c(N)nc3N3CCCCCC3)cc2c1 [compound 30, 30]
19 | 67% | N=C(N)NC(=O)c1nc(-c2ccc(C(F)(F)F)cc2)c(N2CCCCCC2)nc1N [compound 49, 49]
20 | 67% | N=C(N)NC(=O)c1nc(-c2cc3ccccc3s2)c(N2CCCCCC2)nc1N [compound 19, 19]
21 | 69% | N=C(N)NC(=O)c1nc(-c2cc3cc(Cl)ccc3o2)c(N)nc1N [compound 25, 25]
22 | 34% | COc1ncc(-c2nc(C(=O)NC(=N)N)c(N)nc2N)cn1 [compound 46]
23 | 65% | Cc1ccc2oc(-c3nc(C(=O)NC(=N)N)c(N)nc3N)cc2c1 [compound 20, 20]
24 | 44% | CC(C)(C)c1ccc2oc(-c3nc(C(=O)NC(=N)N)c(N)nc3N3CCCCCC3)cc2c1 [compound 22, 22]
25 | 17% | N=C(N)NC(=O)c1nc(-c2cc3ncccc3o2)c(N)nc1N [compound 37, 37]
26 | 46% | N=C(N)NC(=O)c1nc(-c2ccco2)c(N2CCCCCC2)nc1N [compound 15, 15]
27 | 79% | N=C(N)NC(=O)c1nc(Cl)c(N2CCCCCC2)nc1N [compound 13, HMA]
28 | 30% | N#Cc1ccc2oc(-c3nc(C(=O)NC(=N)N)c(N)nc3N)cc2c1 [compound 31, 31]
29 | 45% | N=C(N)NC(=O)c1nc(-c2cc3cc(Br)ccc3o2)c(N)nc1N [compound 27, 27]
30 | 20% | N=C(N)NC(=O)c1nc(-c2cc3ncccc3o2)c(N2CCCCCC2)nc1N [compound 38, 38]
31 | 36% | N=C(N)NC(=O)c1nc(-c2cc3cnccc3o2)c(N)nc1N [compound 39, 39]
32 | 21% | N=C(N)NC(=O)c1nc(-c2cc3cnccc3o2)c(N2CCCCCC2)nc1N [compound 40, 40]
